System: expert panelists (oral evaluation)
Assay: Sensory evaluation: oral evaluation of an aqueous solution by expert panelists
Type: in vivo, human
Conditions: 20 ppm, 7 expert panelists, all seven gave this evaluation
Protocol: Oral evaluation of an aqueous solution of 2-(2-l-menthyloxyethyl)ethanol obtained in Example 1 in a concentration of 20 ppm was carried out by 7 expert panelists having 5 years or longer experience.

## CC(C)[C@@H]1CC[C@@H](C)C[C@H]1OCCOCCO [2-(2-l-menthyloxyethyl)ethanol]
  cool and refreshing feeling quality (oral evaluation): excellent cool and refreshing feeling quality

Reference: patent publication US7923585B2, “Menthol derivative and cooling agent composition comprising the same” (Takasago International Corporation, priority 2004, dated 2011)
